The source made the active and inactive calls. Rule as the data show it: active = IC50 of 10 µM or less and inactive = more.
What was measured:
[1] = target: Melanin-concentrating hormone receptor 1 (Homo sapiens, UniProt Q99705); experiment: Late-stage fluorescence-based counterscreen for antagonists of the G-protein coupled receptor 7 (GPR7): cell-based dose response assay to identify antagonists of the melanin-concentrating hormone receptor 1 (MCHR1) Set 6.; assay type: functional
[2] = target: Neuropeptides B/W receptor type 1 (Homo sapiens, UniProt P48145); experiment: GPR7 antagonist potency, late-stage follow-up, cell-based, fluorescence, dose response, set 6 (AID 588583); assay type: functional
Sequence of Neuropeptides B/W receptor type 1 (P48145 whole entry): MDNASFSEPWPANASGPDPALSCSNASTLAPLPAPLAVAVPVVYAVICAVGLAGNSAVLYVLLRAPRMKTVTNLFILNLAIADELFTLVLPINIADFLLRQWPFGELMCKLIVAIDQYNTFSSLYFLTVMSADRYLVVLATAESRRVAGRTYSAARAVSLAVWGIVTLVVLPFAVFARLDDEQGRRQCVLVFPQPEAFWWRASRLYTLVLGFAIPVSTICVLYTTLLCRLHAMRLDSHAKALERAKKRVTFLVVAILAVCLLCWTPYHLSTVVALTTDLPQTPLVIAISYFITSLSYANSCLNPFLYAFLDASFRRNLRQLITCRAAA

Sequence of Melanin-concentrating hormone receptor 1 (Q99705 whole entry): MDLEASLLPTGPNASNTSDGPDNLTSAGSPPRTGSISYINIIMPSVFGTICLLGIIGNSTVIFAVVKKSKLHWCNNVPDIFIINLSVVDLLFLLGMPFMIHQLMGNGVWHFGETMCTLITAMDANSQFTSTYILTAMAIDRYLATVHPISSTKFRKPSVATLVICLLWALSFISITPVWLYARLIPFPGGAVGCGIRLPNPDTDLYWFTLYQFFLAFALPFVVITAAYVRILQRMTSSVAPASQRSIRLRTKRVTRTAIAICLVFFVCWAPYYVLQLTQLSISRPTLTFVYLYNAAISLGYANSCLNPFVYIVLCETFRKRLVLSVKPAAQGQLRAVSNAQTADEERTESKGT

N#CC(c1cccc(Cl)c1)c1c(Cl)cnn(Cc2cccc3ccccc23)c1=O (configuration not stated)
IC50 [1]: 0.26 µM (active)
IC50 [2]: 0.26 µM (active)

— ChEMBL document CHEMBL1201862, “PubChem BioAssay data set” (2004)
